Here are results for three molecules from patent EP4733299A1, “SULFUR-CONTAINING FUSED RING COMPOUND, PHARMACEUTICAL COMPOSITION CONTAINING SAME, AND PREPARATION METHOD THEREFOR AND USE THEREOF” (Shenzhen Braegen Pharmaceutical Co., Ltd., priority 2023, dated 2024).

In data set [1] the target is T1, Aβ (Homo sapiens, UniProt P05067).
T1 construct: tissue The Jackson Laboratory 034840; host or cells: brain of 5xFAD mice, compound injected in vivo, sections made afterwards
Kind of data set: In vivo validation: tail vein injection, then staining of brain sections. More on the design: species or system 5xFAD mice. As to conditions: 2 mg/kg tail vein injection; 0.5 hours after administration. The method, then: (§1) In vivo validation of the compounds was performed using 8-month-old wild-type mice (Jiangsu Aniphe Biolaboratory Inc), 12-month-old 5xFAD mice (The Jackson Laboratory; Catalog No.: 034840), 6-month-old Tau P301S mice (The Jackson Laboratory; Catalog No.: 008169), and rotenone-treated α-Syn A53T mice (The Jackson Laboratory; Catalog No.: 017682). All mice were stratified by sex and randomly divided into groups, and the compounds were administered via tail vein injection at a dose of 2 mg/kg. Tissues were harvested and mouse brain sections were prepared 0.5 hours after administration, followed by staining with anti-Aβ (Biolegend; Catalog No.: SIG-39300) or AT8 (Thermo Fisher; Catalog No.: MN1020) together with the compounds, respectively.

The target in data set [2] is T2, AT8 (Homo sapiens, UniProt P10636, P618S).
T2 construct: tissue The Jackson Laboratory 008169; host or cells: brain of Tau P301S mice, compound injected in vivo, sections made afterwards
Described as above. More on the design: species or system Tau P301S mice. As to conditions: 2 mg/kg tail vein injection; 0.5 hours after administration. On the procedure:
as §1

Data set [3] addresses T3, α-Syn-p129 or α-Syn aggregates (Homo sapiens, UniProt P37840, A53T).
T3 construct: tissue The Jackson Laboratory 017682; host or cells: brain sections of rotenone-treated transgenic mice
Described as above. As to conditions: 2 mg/kg tail vein injection; 0.5 hours after administration. More on the design: species or system rotenone-treated α-Syn A53T mice. On the procedure:
as §1

Data set [4] is described as follows: In vivo PK profiling, plasma and brain exposure. More on the design: species or system male CD-1 (ICR) mice. To be noted: 5 mg/kg via tail vein injection; for Kp at 1 min: at 1 minute, read-out: brain/plasma ratio; for half-life: plasma. The method, then:
To test whether these compounds are brain permeable in vivo, in vivo PK profiling was conducted to determain brain exposure.
An in vivo PK study was performed in male CD-1 (ICR) mice. Weighed a known amount of test compound and dissolved in vehicle (5% NMP + 15% Solutol + 80% PBS) to make a formulation (1 mg/mL). Then administered 5 mg/kg compound via tail vein injection into mice. The experiment included five groups (sampling time points), each group consisting of three male CD-1 (ICR) mice (body weight range: 29.1-30.6 g). At designated time points (0, 1, 5, 15, and 30 minutes post-injection), serial venous blood samples (approximately 30 µL each) and brain tissue samples were harvested from each animal. Blood samples were collected into Vacutainer IM tubes containing EDTA-K2 anticoagulant, inverted several times, and immediately placed on wet ice pending plasma centrifugation. For brain tissue samples, PBS (100 mM, pH 7.4) at […] the weight of the tissue (1:4, w/v) was added for homogenization. The concentrations of the test compound in plasma and brain tissue homogenates were measured by the LC/MS/MS analysis, with the specific operations as follows: Aliquots of 10 µL plasma sample or 50 µL brain homogenate sample was transferred to a 96-well plate, mixed with 200 µL protein precipitation solvent (methanol/acetonitrile, 1:1 v/v, containing 5 ng/mL Terfenadine). After protein precipitation, the supernatant was collected and diluted 3-fold with methanol/water (1:1, v/v, containing 0.1% FA). 1 µL of plasma samples or 3 µL of brain tissue homogenate samples was taken for LC/MS/MS analysis.

Data set [5] concerns Aβ plaques. Kind of data set: Ex vivo staining of human AD patient brain sections. To be noted: AD brains; Fig. 3. The class given is binding. On the procedure:
(§2) The ex vivo screening was extended into human DLB, and AD patient samples. Neurodegenerative diseases of DLB belong to synucleino-pathies with well-defined Lewy bodies. Therefore, the positive compounds should show robust signals with LBs and LNs.
(§3) For immunohistochemical staining, deparaffinized and antigen-retrieved 20 µm-thick human brain sections were treated with 0.3% H2O2 at room temperature for 10 min. Subsequently, the sections were washed in PBS with 0.3% Triton X-100 3 times and then blocked with 1% BSA for 30 min, followed by overnight incubation with anti-Aβ/AT8/α-Syn pS129 antibody at 4 °C. The signal was developed using a Histostain-SP kit (Invitrogen, Catalog No.: 95-9943). After washing, the sections were covered with a glass cover using mounting solution.

Data set [6] concerns AT8-positive NFTs. The data set is described as above. It counts as binding. As to conditions: AD brains; Fig. 3. The method, then: as §2, §3
Where [7] appears, read: male, CD-1 (ICR), mouse, brain/plasma, intravenous.
Setting [8] is: male, CD-1 (ICR), mouse, brain/plasma, intravenous, read-out: brain/plasma ratio, maximum.
Setting [9] is: male, CD-1 (ICR), mouse, intravenous.

T1 sequence (P05067 672-713 limits assumed): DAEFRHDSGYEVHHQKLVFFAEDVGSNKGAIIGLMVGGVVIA
T2 sequence (P10636 1-412 isoform P10636-7 P272S): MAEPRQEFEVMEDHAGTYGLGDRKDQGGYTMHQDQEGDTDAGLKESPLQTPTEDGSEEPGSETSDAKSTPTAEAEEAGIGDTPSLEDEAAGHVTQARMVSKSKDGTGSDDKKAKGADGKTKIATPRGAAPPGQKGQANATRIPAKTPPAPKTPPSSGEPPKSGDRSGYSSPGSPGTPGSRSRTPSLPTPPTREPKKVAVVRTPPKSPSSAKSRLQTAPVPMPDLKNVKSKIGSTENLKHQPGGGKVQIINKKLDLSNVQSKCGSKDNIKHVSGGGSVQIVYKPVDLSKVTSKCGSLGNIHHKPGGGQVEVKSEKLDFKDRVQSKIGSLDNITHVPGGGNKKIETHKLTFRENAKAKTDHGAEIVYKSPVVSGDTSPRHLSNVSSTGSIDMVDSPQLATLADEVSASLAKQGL

As for `Cc1cc2nc(/C=C/c3ccc(O)c(N)c3)sc2cc1N(C)CCOCCF` [Compound C, (E)-2-amino-4-(2-(6-((2-(2-fluoroethoxy)ethyl)(methyl)amino)-5-methylbenzo[d]thiazol-2-yl)vinyl)phenol], the “specific binding to Aβ” value in data set [1] is on record as “no specific binding”. The “specific binding to AT8” value in data set [2] was “no specific binding”. Besides, the “co-localization with α-Syn-p129 or α-Syn aggregates” value (from here on “co-localization”) in data set [3] was “co-localized”. In data set [4], the “plasma half-life extension compared to F0502B” value is recorded as 10 fold. For the same molecule, in data set [4] (setting [7]), the Kp at 1 min was 0.24. Moreover, the Kp at 15 min in data set [4] (setting [8]) was determined as 1.29. In data set [4] (setting [9]), this molecule showed a half-life of 68.4 min. Moreover, the “staining of Aβ plaques” value in data set [5] is “did not stain”. Also, in data set [6], the “staining of AT8-positive NFTs” value is on record as “did not stain”.
As to `COc1c(/C=C/c2nc3cc(C)c(N(C)CCOCCF)cc3s2)ccc(O)c1Br` [Compound E, (E)-2-bromo-4-(2-(6-((2-(2-fluoroethoxy)ethyl)(methyl)amino)-5-methylbenzo[d]thiazol-2-yl)vinyl)-3-methoxyphenol], the “specific binding to Aβ” value in data set [1] is recorded as “no specific binding”. Further, in data set [2], the “specific binding to AT8” value is “no specific binding”. The “co-localization” value in data set [3] is “co-localized”. In addition, the Kp at 1 min in data set [4] (setting [7]) came to 0.12. For the same molecule, the Kp at 15 min in data set [4] (setting [8]) was determined as 3.37. In addition, in data set [5], the “staining of Aβ plaques” value is “did not stain”. Also, the “staining of AT8-positive NFTs” value in data set [6] is “did not stain”.
On to `CCN(CCOCCF)c1cc2sc(/C=C/c3ccc(O)c(Br)c3)nc2cc1C` [Compound R, (E)-2-bromo-4-(2-(6-(ethyl(2-(2-fluoroethoxy)ethyl)amino)-5-methylbenzo[d]thiazol-2-yl)vinyl)phenol], for which the “specific binding to Aβ” value in data set [1] is listed as “no specific binding”. The “specific binding to AT8” value in data set [2] is recorded as “no specific binding”. For the same molecule, the “co-localization” value in data set [3] was “co-localized”. The “plasma half-life extension compared to F0502B” value in data set [4] is 4.7 fold. Also, in data set [4] (setting [7]), the Kp at 1 min worked out at 0.05. For the same molecule, in data set [4] (male, CD-1 (ICR), mouse, brain/plasma, intravenous, at 30 minutes, read-out: brain/plasma ratio, maximum), the Kp at 30 min stood at 2.55. In addition, the half-life in data set [4] (setting [9]) was 32.4 min. For the same molecule, the “staining of Aβ plaques” value in data set [5] is given as “did not stain”. Moreover, the “staining of AT8-positive NFTs” value in data set [6] was “did not stain”.

The term half-life denotes how long it takes for the measured level to halve. Read a high half-life as slow loss.
